Data reported in US5935805A, “Measurement of bilirubin albumin binding” (Research Corporation Technologies, Inc., priority 1997, dated 1999).
Several values for one entry are separate records, joined by “and”; a condition that tells them apart may be missing. Equal entries are not always repeated. Where two headings read alike, the source gives them in different places. One block for each compound: values may come before it.

How the values were obtained:
albumin [1] = target: T1, albumin (Homo sapiens, UniProt P02768); assay: Unbound bilirubin in bilirubin-defatted albumin solution with sulfisoxazole, peroxidase method of the instant invention at 1:1.8 dilution; type: binding; conditions: 15 mg/dL sulfisoxazole; bilirubin 20 mg/dL, defatted albumin 3.0 g/dL; dilution 1:1.8; mean and SD of 3 replicates
Text: (§1) A 0.1 cm path cuvette was employed to allow direct spectral analysis of the unbound bilirubin at the 1:1.8 dilution.

albumin [2] = target: T1, albumin; assay: Unbound bilirubin in bilirubin-defatted albumin solution with sulfisoxazole, Jacobsen and Wennberg method at 1:41.8 dilution; type: binding; conditions: 15 mg/dL sulfisoxazole; bilirubin 20 mg/dL, defatted albumin 3.0 g/dL; dilution 1:41.8; mean and SD of 3 replicates
Method: as §1
The Jacobsen and Wennberg method was performed as above using a 1 cm path cuvette. The […] technique was performed by stopping the reaction after five minutes with 1.0 ml of diazo-A and then adding 1.0 ml of 90% methanol.

newborns = conditions: displaces bilirubin from albumin, blood level 15 mg/dL reported; cited from earlier work
albumin [3] = target: T1, albumin; assay: Oxidation of bilirubin-14C/defatted albumin by peroxidase and peroxide, Sephadex G25 column radioactivity; type: biochemical; conditions: for Bilirubin: 50 μg/mL peroxidase, 1000 μmol/L ethyl hydrogen peroxide; for Eluate counts/min: albumin fraction from Sephadex G25; for Bilirubin (% time 0): 278 µM
Method: A bilirubin-^14 C/defatted albumin solution (molar ratio 0.42) containing 278 μmol/L bilirubin and 60,839 counts per minute, 50 μg/mL peroxidase, and 1000 μmol/L ethyl hydrogen peroxide were allowed to react for 8 minutes. At various times (0 to 8 minutes), 100 μl of reaction mix was removed and added to 10 μl of 100 mmol/L Na2 S to stop the reaction. The bilirubin concentration was calculated from the absorption at 460 nm after dilution to 1.0 ml with 0.055M Somensen's buffer, and the entire diluted reaction mixture was then placed on a Sephadex G25 0.5×5 cm (diameter×length) column prepared according to the manufacturer's instructions. The albumin fraction was then eluted with buffer. The bilirubin remaining and the radioactivity of the eluate were measured at each time interval to determine whether the oxidation products remained bound to albumin during the reaction and therefore passed through the Sephadex column with the albumin.

albumin [4] = target: T1, albumin; conditions: lowest established value; cited from earlier work
albumin [5] = target: T1, albumin; assay: Bilirubin-albumin binding isotherm in minimally diluted newborn plasma titrated with bilirubin; set-up: Plasma from a partial exchange transfusion performed in a term newborn with polycythemia; from tissue; host or cells: plasma of a term newborn (partial exchange transfusion); conditions: dilution 1:1.8, two-site model, non-linear regression
Text: Plasma from a partial exchange transfusion performed in a term newborn with polycythemia was titrated with bilirubin and the unconjugated unbound bilirubin determined by the present method to assess the bilirubin-albuminbinding isotherm in minimally diluted plasma. Non-linear regression used to determine the equilibrium binding constants, and a two-site model with interaction between sites best fit the binding isotherm.

horseradish peroxidase = assay: Standardization of catalyzing reagent: peroxidase catalyzed oxidation of bilirubin by peroxide in the absence of albumin; type: biochemical; conditions: about 21° C.
Method: This is done by determining the Kp, i.e., the first order rate constant for the oxidation of bilirubin by the oxidizing reagent (usually peroxide) in the presence of the catalyzing reagent. The Kp is determined by standard techniques known in the art, utilizing known concentrations of unbound unconjugated bilirubin. […] If B is the unconjugated unoxidized bilirubin concentration at time t, P is the concentration of the catalyzing reagent e.g., peroxidase, Bo, and Bt are the initial unconjugated bilirubin concentration and the unconjugated bilirubin concentration at time t, respectively, and the concentration of the oxidizing reagent e.g., peroxide is not rate limiting, then at concentrations of bilirubin that are well below the Km for peroxidase catalyzed peroxide oxidation of bilirubin, (for HRP, this value is .congruent.70 uMol at 37° C.), then
dB/dt=-Kp ·P·B EQ.3
Integrating Equation 3 between the limits t=o and t=t, wherein t is the predetermined time referred to hereinabove provides [formula] Thus, in accordance with EQ.4, the value of Kp is determined if a known concentration of peroxidase is reacted with an excess amount of peroxide with a known amount of unbound unconjugated bilirubin.

T1 sequence (P02768 25-609): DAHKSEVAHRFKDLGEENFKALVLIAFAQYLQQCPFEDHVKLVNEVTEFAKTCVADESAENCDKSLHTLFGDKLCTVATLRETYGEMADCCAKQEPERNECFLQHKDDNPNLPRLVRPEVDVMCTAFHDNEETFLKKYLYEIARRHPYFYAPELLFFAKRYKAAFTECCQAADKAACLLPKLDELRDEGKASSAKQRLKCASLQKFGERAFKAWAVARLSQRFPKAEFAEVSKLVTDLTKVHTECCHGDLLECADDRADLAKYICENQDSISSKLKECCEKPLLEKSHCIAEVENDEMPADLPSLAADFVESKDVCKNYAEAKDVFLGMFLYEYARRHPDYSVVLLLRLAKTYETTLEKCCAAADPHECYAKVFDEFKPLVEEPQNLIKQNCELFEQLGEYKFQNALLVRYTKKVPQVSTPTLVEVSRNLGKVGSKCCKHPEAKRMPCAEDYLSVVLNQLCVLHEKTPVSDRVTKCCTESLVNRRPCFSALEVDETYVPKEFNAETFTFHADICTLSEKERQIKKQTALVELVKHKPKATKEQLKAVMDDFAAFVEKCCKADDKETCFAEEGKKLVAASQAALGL

Compound: Cc1noc(NS(=O)(=O)c2ccc(N)cc2)c1C [sulfisoxazole]
CONCENTRATION OF UNBOUND BILIRUBIN + Sulfa (albumin [1]): 0.285 ± 0.03 μm | CONCENTRATION OF UNBOUND BILIRUBIN + Sulfa (albumin [2]): 0.092 ± .003 μm | Bilirubin toxicity when given to newborns (newborns): development of bilirubin toxicity

Eluate counts/min (% time 0) (albumin [3]; reaction time 0 min): 100 % time 0 | Bilirubin (albumin [3]; reaction time 0 min): 4.86 µmol/L and 4.93 µmol/L | Eluate counts/min (albumin [3]; reaction time 0 min): 57,675 counts/min and 57,692 counts/min | Eluate counts/min (% time 0) (albumin [3]; reaction time 4 min): 97 % time 0 and 92 % time 0 | Bilirubin (albumin [3]; reaction time 4 min): 3.07 µmol/L and 3.36 µmol/L | Bilirubin (% time 0) (albumin [3]; reaction time 4 min, 4 min): 63 % time 0 and 68 % time 0 | Eluate counts/min (albumin [3]; reaction time 4 min): 55,797 counts/min and 53,070 counts/min | Eluate counts/min (% time 0) (albumin [3]; reaction time 6 min): 87 % time 0 and 82 % time 0 | Bilirubin (albumin [3]; reaction time 6 min): 2.70 µmol/L and 2.60 µmol/L | Bilirubin (% time 0) (albumin [3]; reaction time 6 min, 6 min): 55 % time 0 and 53 % time 0 | Eluate counts/min (albumin [3]; reaction time 6 min): 50,119 counts/min and 47,500 counts/min | Eluate counts/min (% time 0) (albumin [3]; reaction time 8 min): 87 % time 0 and 86 % time 0 | Bilirubin (albumin [3]; reaction time 8 min): 2.14 µmol/L and 2.24 µmol/L | Eluate counts/min (albumin [3]; reaction time 8 min): 50,174 counts/min and 49,405 counts/min | Kd (albumin [5]; read-out: Equilibrium dissociation constant, 1:1 bilirubin/albumin species): 59 nM | Kd (albumin [5]; read-out: Equilibrium dissociation constant, 2:1 bilirubin/albumin species): 30.3 nM
Compound: C=CC1=C(C)/C(=C/c2[nH]c(Cc3[nH]c(/C=C4\NC(=O)C(C)=C4C=C)c(C)c3CCC(=O)O)c(CCC(=O)O)c2C)NC1=O [bilirubin, bilirubin IXa]
First order dissociation rate constant k-1 of the bilirubin-albumin complex, lowest value (albumin [4]): about 0.4 /min

Compound: horseradish peroxidase
Kp, first order rate constant for catalyzed oxidation of bilirubin (horseradish peroxidase): about eight
